Usually IC50 stands for the concentration that inhibits the measured activity by half.

This passage reports IC50 results from US10294212B2 (CURADEV PHARMA PRIVATE LTD., priority 2013, dated 2019).

In assay [1] the target is IDO1 in HeLa cells (Homo sapiens (Human), UniProt P14902). In words: HeLa cell based IDO1 assay (IFNγ-induced, KYN in supernatant). On the procedure:
HeLa cells were obtained from ATCC and maintained in DMEM supplemented with sodium bicarbonate (2.1 g/L), HEPES (4.1 g/L), L-glutamine (2 mM), non-essential amino acid (84 mg/L) and fetal bovine serum (10% FBS) and maintained at 95% humidity and 5% CO2 in a 37° C. incubator. Unless otherwise stated, all materials were procured from Sigma. Upon incubation with gamma-interferon (IFNγ ), HeLa cells express IDO1, which catalyzes the formation of N-formyl kynurenine from tryptophan present in growth medium. The assay was performed as follows:
Cells were plated in medium (300 μL) at a density of 0.1 million per well of a 48 well plate and hIDO1 was induced by overnight treatment with IFNγ (50 ng/mL) (Peprotech, USA). The following day, cells were washed to remove IFNγ and were incubated with specific concentrations of test compounds (typically 10 μM to 1 nM, final volume 300 μL) in Hanks Balanced Salt Solution (HBSS) containing 80 μM L-tryptophan. Following incubation, supernatant (150 μL) was transferred to a 96 well plate into which 30%TCA (304) was added and the contents further incubated at 65° C. for 15 min to fully convert N-formylkynurenine to kynurenine. The reaction mixture was then centrifuged to remove sediments and the KYN in the supernatant was estimated by UV-visible absorption spectroscopy at 360 nm using a Waters HPLC system fitted with a C-18 column. (Xiangdong Liu et al. Blood 2010, Vol-117, 3520-30; Sono described above).
Percent inhibition at each concentration of test compounds was determined by estimating the decrease in KYN with reference to the reaction control with 1% DMSO vehicle. Data were analyzed using nonlinear regression to generate IC50 values using Graph Pad Prism® 5.

Assay [2] has as its target Human indoleamine 2,3-dioxygenase1 (hIDO1) (Homo sapiens (Human), UniProt P14902). The experiment in a line: In-vitro IDO1 enzyme assay (conversion of L-tryptophan to KYN). The assay is classed as biochemical. The note with it: read-out: IC50 (IDO1) Enz. An outline of the steps:
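His-tagged hIDO1 (10 nM, E. coli-expressed) incubated with 30 μM L-tryptophan, 20 mM ascorbate, 10 μM methylene blue and 100 μg/mL catalase in 50 mM potassium phosphate pH 6.5, 30 min at 37 °C. TCA stop, then 65 °C hydrolysis; KYN measured by HPLC-UV at 360 nm or LC/MS/MS. IC50 by nonlinear regression versus 1% DMSO control.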

In assay [3] the target is Human TDO (hTDO)-transfected CHO-K1 cells (Homo sapiens (Human), UniProt P48775). In words: CHO-K1 cell based TDO assay. The note with it: hTDO cellular assay. Summed up:
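Stably hTDO-expressing CHO-K1 cells were exposed to compounds (typically 31 μM to 10 nM) in HBSS with 80 μM L-tryptophan for 2 h. TCA-treated supernatant was heated at 65° C for 15 min to convert N-formylkynurenine, then kynurenine was quantified by LC/MS/MS. IC50 came from percent inhibition versus DMSO control.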

Structures are written as SMILES.

Sequence of Human indoleamine 2,3-dioxygenase1 (hIDO1) (P14902 whole entry): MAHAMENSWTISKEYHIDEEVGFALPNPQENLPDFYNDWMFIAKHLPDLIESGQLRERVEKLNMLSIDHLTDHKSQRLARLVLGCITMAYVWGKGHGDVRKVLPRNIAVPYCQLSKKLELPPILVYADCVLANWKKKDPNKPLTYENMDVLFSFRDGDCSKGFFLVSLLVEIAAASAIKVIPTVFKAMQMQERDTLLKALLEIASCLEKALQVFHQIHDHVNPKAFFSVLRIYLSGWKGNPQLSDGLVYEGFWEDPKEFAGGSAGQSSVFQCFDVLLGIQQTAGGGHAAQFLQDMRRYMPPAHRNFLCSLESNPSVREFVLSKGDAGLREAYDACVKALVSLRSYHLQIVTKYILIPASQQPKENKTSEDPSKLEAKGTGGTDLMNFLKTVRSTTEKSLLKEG
Sequence of IDO1 in HeLa cells (P14902 whole entry): as above
Sequence of Human TDO (hTDO)-transfected CHO-K1 cells (P48775 whole entry): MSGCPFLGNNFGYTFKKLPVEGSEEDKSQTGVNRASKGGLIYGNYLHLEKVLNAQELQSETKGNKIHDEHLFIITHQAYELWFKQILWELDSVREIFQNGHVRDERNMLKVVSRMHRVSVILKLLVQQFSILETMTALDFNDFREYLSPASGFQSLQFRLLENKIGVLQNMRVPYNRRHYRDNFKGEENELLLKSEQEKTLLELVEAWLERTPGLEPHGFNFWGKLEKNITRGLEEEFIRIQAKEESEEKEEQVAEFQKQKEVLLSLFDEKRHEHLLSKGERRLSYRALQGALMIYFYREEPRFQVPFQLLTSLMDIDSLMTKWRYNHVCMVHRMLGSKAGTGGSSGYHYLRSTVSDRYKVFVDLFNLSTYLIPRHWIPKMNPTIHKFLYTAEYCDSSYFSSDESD

As for `Nc1oc2cnccc2c1Nc1cccc(I)c1` [Compound 20, N^3-(3-Iodophenyl)furo[2,3-c]pyridine-2,3-diamine], the IC50 is less than 200 nM in assay [1], less than 200 nM in assay [2] and 500 to 2000 nM in assay [3].

`Cc1ccc(Nc2c(N)oc3cnccc23)cc1Br` [Compound 21, N^3-(3-Bromo-4-methylphenyl)furo[2,3-c]pyridine-2,3-diamine]: the IC50 is less than 200 nM in assay [1], 200 to 1000 nM in assay [2] and 500 to 2000 nM in assay [3].

On to `Nc1oc2cnccc2c1Nc1cc(F)c(F)c(Br)c1` [Compound 22, N^3-(3-Bromo-4,5-difluorophenyl)furo[2,3-c]pyridine-2,3-diamine], for which the concentration for half-maximal inhibition (IC50) is 200 to 1000 nM in assay [1], greater than 1000 nM in assay [2] and greater than 2000 nM in assay [3].

For the compound `COc1ccc(Cl)cc1Nc1c(N)oc2cnccc12` [Compound 25, N^3-(5-Chloro-2-methoxyphenyl)furo[2,3-c]pyridine-2,3-diamine], the values for the IC50 in assay [1], in assay [2] and in assay [3] were 200 to 1000 nM, greater than 1000 nM and 500 to 2000 nM, respectively.

Take `Nc1oc2cnccc2c1Nc1cccc(C(F)(F)F)c1` [Compound 26, N^3-(3-(Trifluoromethyl)phenyl)furo[2,3-c]pyridine-2,3-diamine]: the half-inhibitory concentration (IC50) in assay [1] was less than 200 nM; in assay [2] it was less than 200 nM; in assay [3], 500 to 2000 nM.

With `Cc1cc(Nc2c(N)oc3cnccc23)ccc1F` [Compound 27, N^3-(4-Fluoro-3-methylphenyl)furo[2,3-c]pyridine-2,3-diamine], the half-inhibitory concentration (IC50) in assay [1] is less than 200 nM; in assay [2], less than 200 nM; in assay [3], 500 to 2000 nM.

For the compound `Cc1ccc(Nc2c(N)oc3cnccc23)cc1Cl` [Compound 33, N^3-(3-Chloro-4-methylphenyl)furo[2,3-c]pyridine-2,3-diamine], the IC50 in assay [1] was less than 200 nM; in assay [2], less than 200 nM; in assay [3], 500 to 2000 nM.

Take `Nc1oc2cnccc2c1Nc1ccc2c(c1)OCO2` [Compound 35, N^3-(Benzo[d][1,3]dioxol-5-yl)furo[2,3-c]pyridine-2,3-diamine]: the IC50 is less than 200 nM in assay [1], 200 to 1000 nM in assay [2] and 500 to 2000 nM in assay [3].

As to `Cc1ccc(Nc2c(N)oc3cnccc23)cc1` [Compound 40, N^3-(p-tolyl)Furo[2,3-c]pyridine-2,3-diamine], the results for the IC50 in assay [1], in assay [2] and in assay [3] were less than 200 nM, greater than 1000 nM and 500 to 2000 nM, respectively.

`Nc1oc2cnccc2c1Nc1cccc(C2CC2)c1` [Compound 42, N^3-(3-Cyclopropylphenyl)furo[2,3-c]pyridine-2,3-diamine]: the values for the half-maximal inhibitory concentration (IC50) in assay [1], in assay [2] and in assay [3] were less than 200 nM, less than 200 nM and greater than 2000 nM, respectively.

With `CC(C)c1cccc(Nc2c(N)oc3cnccc23)c1` [Compound 43, N^3-(3-Isopropylphenyl)furo[2,3-c]pyridine-2,3-diamine], the IC50 was less than 200 nM in assay [1], 200 to 1000 nM in assay [2] and greater than 2000 nM in assay [3].

Turning to `Nc1oc2cnccc2c1Nc1ccc(F)c(Cl)c1F` [Compound 44, N^3-(3-Chloro-2,4-difluorophenyl)furo[2,3-c]pyridine-2,3-diamine], the half-inhibitory concentration (IC50) is less than 200 nM in assay [1], 200 to 1000 nM in assay [2] and 500 to 2000 nM in assay [3].

With `Nc1oc2cnccc2c1Nc1cccc(F)c1` [Compound 46, N^3-(3-Fluorophenyl)furo[2,3-c]pyridine-2,3-diamine], the half-maximal inhibitory concentration (IC50) in assay [1] is less than 200 nM; in assay [2], 200 to 1000 nM; in assay [3], 500 to 2000 nM.

With `Nc1oc2cnccc2c1Nc1cc(Cl)c(F)c(Cl)c1` [Compound 47, N^3-(3,5-Dichloro-4-fluorophenyl)furo[2,3-c]pyridine-2,3-diamine], the IC50 in assay [1] was 200 to 1000 nM; in assay [2] it was greater than 1000 nM; in assay [3], 500 to 2000 nM.

Take `Nc1oc2cnccc2c1Nc1cc(Cl)c(F)cc1F` [Compound 51, N^3-(5-Chloro-2,4-difluorophenyl)furo[2,3-c]pyridine-2,3-diamine]: the 50% inhibitory concentration (IC50) in assay [1] is less than 200 nM; in assay [2] it was greater than 1000 nM; in assay [3], greater than 2000 nM.

For `Nc1oc2cnccc2c1Nc1cc(Cl)ccc1Cl` [Compound 55, N^3-(2,5-Dichlorophenyl)furo[2,3-c]pyridine-2,3-diamine], the IC50 in assay [1] was less than 200 nM; in assay [2] it was greater than 1000 nM; in assay [3], greater than 2000 nM.

`Nc1oc2cnccc2c1Nc1ccc(F)c(Br)c1` [Compound 58, N^3-(3-Bromo-4-fluorophenyl)furo[2,3-c]pyridine-2,3-diamine]: the IC50 in assay [1] is less than 200 nM; in assay [2], less than 200 nM; in assay [3], less than 500 nM.

Regarding `Nc1oc2cnccc2c1Nc1ccc(F)c(C(F)(F)F)c1` [Compound 60, N^3-(4-Fluoro-3-(trifluoromethyl)phenyl)furo[2,3-c]pyridine-2,3-diamine], the IC50 in assay [1] is less than 200 nM; in assay [2], less than 200 nM; in assay [3], 500 to 2000 nM.

As for `Nc1oc2cnccc2c1Nc1ccc(F)c(OC(F)(F)F)c1` [Compound 62, N^3-(4-Fluoro-3-(trifluoromethoxy)phenyl)furo[2,3-c]pyridine-2,3-diamine], the 50% inhibitory concentration (IC50) is less than 200 nM in assay [1], 200 to 1000 nM in assay [2] and greater than 2000 nM in assay [3].

Turning to `COc1cc2c(Nc3ccc(F)c(Cl)c3)c(N)oc2cn1` [Compound 64, N^3-(3-Chloro-4-fluoro-phenyl)-5-methoxy-furo[2,3-c]pyridine-2,3-diamine], the IC50 in assay [1] was less than 200 nM; in assay [2], less than 200 nM; in assay [3], 500 to 2000 nM.

As for `Nc1oc2cnccc2c1Nc1cccc(C(F)F)c1` [Compound 65, N^3-(3-(Difluoromethyl)phenyl)furo[2,3-c]pyridine-2,3-diamine], the 50% inhibitory concentration (IC50) in assay [1] was less than 200 nM; in assay [2] it was less than 200 nM; in assay [3], 500 to 2000 nM.

As to `Cc1nccc2c(Nc3ccc(F)c(Cl)c3)c(N)oc12` [Compound 66, N^3-(3-Chloro-4-fluoro-phenyl)-7-methyl-furo[2,3-c]pyridine-2,3-diamine], the IC50 is less than 200 nM in assay [1], less than 200 nM in assay [2] and less than 500 nM in assay [3].

As for `COc1cncc2oc(N)c(Nc3ccc(F)c(Cl)c3)c12` [Compound 67, N^3-(3-Chloro-4-fluoro-phenyl)-4-methoxy-furo[2,3-c]pyridine-2,3-diamine], the half-inhibitory concentration (IC50) in assay [1] was less than 200 nM; in assay [2], greater than 1000 nM; in assay [3], 500 to 2000 nM.

For the compound `C#Cc1cccc(Nc2c(N)oc3cnccc23)c1` [Compound 68, N^3-(3-Ethynylphenyl)furo[2,3-c]pyridine-2,3-diamine], the IC50 in assay [1] was less than 200 nM; in assay [2] it was 200 to 1000 nM; in assay [3], 500 to 2000 nM.

As to `CC(F)(F)c1cc(Nc2c(N)oc3cnccc23)ccc1F` [Compound 69, N^3-(3-(1,1-Difluoroethyl)-4-fluorophenyl)furo[2,3-c]pyridine-2,3-diamine], the results for the IC50 in assay [1], in assay [2] and in assay [3] were less than 200 nM, 200 to 1000 nM and greater than 2000 nM, respectively.

Take `Cc1cc(Nc2c(N)oc3cnccc23)ccc1Cl` [Compound 70, N^3-(4-Chloro-3-methylphenyl)furo[2,3-c]pyridine-2,3-diamine]: the IC50 in assay [1] is less than 200 nM; in assay [2], 200 to 1000 nM; in assay [3] it was 500 to 2000 nM.

As for `Nc1oc2cnccc2c1Nc1ccc2c(c1)CCCC2` [Compound 71, N^3-(5,6,7,8-Tetrahydronaphthalen-2-yl)furo[2,3-c]pyridine-2,3-diamine], the IC50 in assay [1] was less than 200 nM; in assay [2], greater than 1000 nM; in assay [3] it was greater than 2000 nM.

Take `Cc1ncc(C)c2c(Nc3ccc(F)c(Cl)c3)c(N)oc12` [Compound 72, N^3-(3-chloro-4-fluorophenyl)-4,7-dimethylfuro[2,3-c]pyridine-2,3-diamine]: the IC50 in assay [1] lay within 200 to 1000 nM; in assay [2] it was 200 to 1000 nM; in assay [3], 500 to 2000 nM.

Consider `CCc1nccc2c(Nc3ccc(F)c(Cl)c3)c(N)oc12` [Compound 73, N^3-(3-Chloro-4-fluoro-phenyl)-7-ethyl-furo[2,3-c]pyridine-2,3-diamine], for which the 50% inhibitory concentration (IC50) in assay [1] is less than 200 nM; in assay [2], less than 200 nM; in assay [3], less than 500 nM.
